Reference: patent publication US3989701A, “Diamine-benzophenones and a process for the preparation thereof” (Richter Gedeon Vegyeszeti Gyar Rt., priority 1973, dated 1976)

What was measured:
[1] = in vivo
[2] = LD50 (acute toxicity); settings: in vivo, po
[3] = Rotarod / ataxis and reflex retardation
[4] = test system: yohimbine lethality; experiment: Potentiation of yohimbine lethality; format: in vivo, CFLP male mice
Description: To investigate the yohimbine-potentiating effect, CFLP male mice each weighing 20 to 25 g. were treated orally with the compounds according to the invention, and 1 hour after this treatment yohimbine was injected subcutaneously into the animals in a dosage of 20 mg./kg.

[5] = test system: liver microsomal enzymes; experiment: Enzyme inductive effect (shortening of duration of sleeping after hexobarbital); format: in vivo, Wistar female rats; settings: for Average duration of sleeping ± S.E.: Dosage 60 mg./kg. p.o., hexobarbital 40 mg./kg. i.v. 24 hours later, control 27.4 ± 3.02
Description: To investigate the enzyme inductive effect, Wistar female rats, each weighing 40 to 50 g. were treated with pure solvent, or with a dosage of 60 mg./kg. of phenobarbital or the compound to be tested, respectively. 24 hours after this treatment 40 mg./kg. of hexobarbital were administered intravenously into the animals. The decrease of the elimination period and the liver enzyme induction was expressed as the shortening of duration of sleeping.

[6] = Antipyretic effect (yeast- and pyragro-treated rats, rectal temperature); format: in vivo, male rats; settings: Dosage 40 mg./kg. orally; rectal temperature recorded for 5 hours
Description: To test the antipyretic effect, a 15% yeast suspension was administered to male rats each weighing 180 ±10 g. No food was given to the animals, they could consume, however, arbitrary amount of water. 16 hours after the administration of yeast the rectal temperature of the animals was taken, and the animals were treated with pyragro in an intravenous dosage of 50 M bact./animal. The compound to be tested was administered orally into the animals, thereafter the change in rectal temperature both for the treated and the control animals was recorded for 5 hours, using an "Elab" type electrothermometer. Phenacetine, used as reference substance, and the compounds of the invention were administered in dosages of 40 mg./kg. body weight.

[7] = Harmful effects on the kidneys; format: in vivo; settings: in words, compared with phenacetine
[8] = Effect on the central nervous system; format: in vivo; settings: in words

SMILES	LD50 [2] [mg/kg]	Average duration of sleeping ± S.E. [5] [min]	also measured
CN1CCN(c2ccc(C(=O)c3ccccc3)cc2N)CC1 [C3, 3-amino-4-(N-methyl-piperazino)-benzophenone]	> 3000	–	TD50 [1]: 160 mg/kg; ataxis or reflex retardation ([3]; in the active dosage): causes no ataxis or reflex retardation; ED50 ([4]; Mus musculus, sc, yohimbine 20 mg./kg. s.c. 1 hour after treatment, deaths counted at 24 hours, probit analysis): 30 mg/kg; antidepressant activity / yohimbine lethality increasing effect (in words) ([4]; compared with imipramine where stated): inferior in antidepressant activity to imipramine
CCN(c1ccccc1)c1ccc(C(=O)c2ccccc2)cc1N [C6, 3-amino-4-(N-ethyl-N-phenylamino)-benzophenone]	> 400	11.6 ± 2.71	–
CC(C)CN(CC(C)C)c1ccc(C(=O)c2ccccc2)cc1N [C7, 3-amino-4-(N,N-diisobutylamino)-benzophenone]	> 600	10.0 ± 1.92	–
Nc1cc(C(=O)c2ccccc2)ccc1N1CCOCC1 [C8, 3-amino-4-morpholino-benzophenone]	> 3000	–	Decrease of temperature [6]: -1.0 °C; harmful effects on the kidneys [7]: no harmful effects on the kidneys
CCC(=O)Nc1cc(C(=O)c2ccccc2)ccc1N1CCOCC1.Cl [C11, 3-propionylamino-4-morpholino-benzophenone HCl]	> 450	9.0 ± 1.30	enzyme-inducing effect (in words) ([5]; compared with phenobarbital where stated): the same in strength as for phenobarbital; effect on the central nervous system [8]: no effect on the central nervous system
CCCCCCCCCCCCCCCC(=O)Nc1cc(C(=O)c2ccccc2)ccc1N1CCOCC1 [C12, 3-palmitoylamino-4-morpholino-benzophenone]	> 500	10.4 ± 1.02	–
CN(C)CCCN1c2ccccc2CCc2ccccc21 [Imipramine, 5-(3-dimethylaminopropyl)-10,11-dihydro-5H-dibenz(b,f)azepin, reference compound]	–	–	TD50 ([3]; rotarod): 28 mg/kg
CCOc1ccc(NC(C)=O)cc1 [Phenacetine, reference compound]	2400	–	Decrease of temperature [6]: -1.0 °C
CCC1(c2ccccc2)C(=O)NC(=O)NC1=O [Phenobarbital, reference compound]	240	5.4 ± 1.63	–
